Source: PubChem BioAssay AID248 (DTP/NCI, 2004)
Several values for one entry are separate records, joined by “and”; a condition that tells them apart may be missing. Equal entries are not always repeated. Toxic doses and inconclusive results are not listed. Cut-off read from the data, not from the text of the source: active = T/C of 150% or more; inactive = T/C below 125%.

Tested on: L1210 leukemia ip in BDF1 mice, survival T/C
Experiment: NCI In Vivo Anticancer Drug Screen. Data for tumor model L1210 Leukemia (intraperitoneal) in B6D2F1 (BDF1) mice
Settings: endpoint: mean survival time, higher = longer survival
Outline: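 Value reflects the ratio of survival in compound-treated mice to survival in vehicle-treated controls, with both groups carrying the same transplanted tumor.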

[1] = dose: 100.0 mg/kg/injection, schedule: Q04DX003 (ip), vehicle: saline with Tween-80
[2] = dose: 200.0 mg/kg/injection, schedule: Q04DX003 (ip), vehicle: saline with Tween-80
[3] = dose: 100.0 mg/kg/injection, schedule: Q04DX003 (ip), vehicle: Klucel (hydroxypropylcellulose) (HPC)
[4] = dose: 200.0 mg/kg/injection, schedule: Q04DX003 (ip), vehicle: Klucel (hydroxypropylcellulose) (HPC)
[5] = dose: 400.0 mg/kg/injection, schedule: Q04DX003 (ip), vehicle: Klucel (hydroxypropylcellulose) (HPC)
[6] = dose: 100.0 mg/kg/injection, schedule: Q04DX003 (ip), vehicle: saline
[7] = dose: 400.0 mg/kg/injection, schedule: Q04DX002 (ip), vehicle: saline with Tween-80
[8] = dose: 50.0 mg/kg/injection, schedule: Q01DX009 (ip), vehicle: Klucel (hydroxypropylcellulose) (HPC)
[9] = dose: 100.0 mg/kg/injection, schedule: Q01DX009 (ip), vehicle: Klucel (hydroxypropylcellulose) (HPC)
[10] = dose: 100.0 mg/kg/injection, schedule: Q01DX009 (ip), vehicle: saline with Tween-80
[11] = dose: 100.0 mg/kg/injection, schedule: Q04DX002 (ip), vehicle: Klucel (hydroxypropylcellulose) (HPC)
[12] = dose: 200.0 mg/kg/injection, schedule: Q04DX002 (ip), vehicle: Klucel (hydroxypropylcellulose) (HPC)
[13] = dose: 400.0 mg/kg/injection, schedule: Q04DX002 (ip), vehicle: Klucel (hydroxypropylcellulose) (HPC)

Measured: T/C

Nc1ccc(S(=O)(=O)NC(=O)NCc2ccccc2)cc1
inactive: [1] 101 % of control | [2] 98 % of control | dose: 400.0 mg/kg/injection, schedule: Q04DX003 (ip), vehicle: saline with Tween-80 101 % of control

O=C1C(NC(=O)C(Cl)Cl)=C(N2CC2)C(=O)c2ccccc21
inactive: [3] 98 % of control | [4] 102 % of control | [5] 98 % of control

O=C1NC(CN2CCCC(O)C2)C(=O)NC1CN1CCCC(O)C1 (configuration not stated) (tested in a mixture with another compound)
inactive: dose: 25.0 mg/kg/injection, schedule: Q01DX009 (ip), vehicle: water 104 % of control | dose: 50.0 mg/kg/injection, schedule: Q01DX009 (ip), vehicle: water 104 % of control | dose: 100.0 mg/kg/injection, schedule: Q01DX009 (ip), vehicle: water 112 % of control | dose: 200.0 mg/kg/injection, schedule: Q01DX009 (ip), vehicle: water 108 % of control

CCOC1=C(Cl)C(=O)C(OCC)=C(Cl)C1=O
inactive: dose: 4.0 mg/kg/injection, schedule: Q04DX003 (ip), vehicle: DMSO 98 % of control | dose: 6.0 mg/kg/injection, schedule: Q04DX003 (ip), vehicle: DMSO 98 % of control | dose: 9.0 mg/kg/injection, schedule: Q04DX003 (ip), vehicle: DMSO 96 % of control and 86 % of control | dose: 75.0 mg/kg/injection, schedule: Q01DX001 (ip), vehicle: alcohol 92 % of control | dose: 150.0 mg/kg/injection, schedule: Q01DX001 (ip), vehicle: alcohol 97 % of control

O=C(Nc1ccc2c(O)cc(S(=O)(=O)O)cc2c1)Nc1ccc2c(O)cc(S(=O)(=O)O)cc2c1
inactive: [6] 96 % of control | dose: 200.0 mg/kg/injection, schedule: Q04DX003 (ip), vehicle: saline 108 % of control | dose: 400.0 mg/kg/injection, schedule: Q04DX003 (ip), vehicle: saline 108 % of control

CC(=O)N(NC(=O)c1cccnc1)C(C)=O
inactive: dose: 3.75 mg/kg/injection, schedule: Q01DX015 (oral), vehicle: carboxymethylcellulose (CMC) 101 % of control | dose: 7.5 mg/kg/injection, schedule: Q01DX015 (oral), vehicle: carboxymethylcellulose (CMC) 100 % of control | dose: 15.0 mg/kg/injection, schedule: Q01DX015 (oral), vehicle: carboxymethylcellulose (CMC) 100 % of control | dose: 30.0 mg/kg/injection, schedule: Q01DX015 (oral), vehicle: carboxymethylcellulose (CMC) 106 % of control | dose: 62.0 mg/kg/injection, schedule: Q01DX Z (oral), vehicle: carboxymethylcellulose (CMC) 91 % of control | dose: 125.0 mg/kg/injection, schedule: Q01DX Z (oral), vehicle: carboxymethylcellulose (CMC) 91 % of control | dose: 250.0 mg/kg/injection, schedule: Q01DX Z (oral), vehicle: carboxymethylcellulose (CMC) 95 % of control

Nc1cc2ccc(O)cc2c2ccccc12
inactive: dose: 25.6 mg/kg/injection, schedule: Q04DX002 (ip), vehicle: saline with Tween-80 109 % of control | dose: 64.0 mg/kg/injection, schedule: Q04DX002 (ip), vehicle: saline with Tween-80 91 % of control | dose: 160.0 mg/kg/injection, schedule: Q04DX002 (ip), vehicle: saline with Tween-80 94 % of control | [7] 102 % of control

CC(C)Cc1ccccn1
inactive: dose: 25.0 mg/kg/injection, schedule: Q01DX009 (ip), vehicle: Klucel (hydroxypropylcellulose) (HPC) 96 % of control | [8] 98 % of control | [9] 91 % of control

COc1cc(CNC(=O)/C(C)=C/Cl)ccc1O
inactive: dose: 12.5 mg/kg/injection, schedule: Q04DX003 (ip), vehicle: saline with Tween-80 96 % of control | dose: 25.0 mg/kg/injection, schedule: Q04DX003 (ip), vehicle: saline with Tween-80 96 % of control | dose: 50.0 mg/kg/injection, schedule: Q04DX003 (ip), vehicle: saline with Tween-80 103 % of control

Cc1ccc[n+](CCc2c[nH]c3ccccc23)c1
inactive: [1] 90 % of control

O=S(=O)(Nc1ccc2ccccc2c1)c1ccc2ccccc2c1
inactive: [3] 91 % of control | [4] 90 % of control | [5] 91 % of control

COC(=O)c1ccccc1NC1=NCCO1
inactive: dose: 50.0 mg/kg/injection, schedule: Q04DX002 (ip), vehicle: saline with Tween-80 98 % of control | dose: 100.0 mg/kg/injection, schedule: Q04DX002 (ip), vehicle: saline with Tween-80 104 % of control | dose: 200.0 mg/kg/injection, schedule: Q04DX002 (ip), vehicle: saline with Tween-80 91 % of control | [7] 88 % of control

c1ccc(C(=C2CC34CCCC23CC4)c2ccccc2)cc1 (configuration not stated)
inactive: dose: 37.5 mg/kg/injection, schedule: Q04DX002 (ip), vehicle: saline with Tween-80 95 % of control | dose: 75.0 mg/kg/injection, schedule: Q04DX002 (ip), vehicle: saline with Tween-80 98 % of control | dose: 150.0 mg/kg/injection, schedule: Q04DX002 (ip), vehicle: saline with Tween-80 91 % of control | dose: 300.0 mg/kg/injection, schedule: Q04DX002 (ip), vehicle: saline with Tween-80 91 % of control

CCOC(=O)C(C(C)=O)C(c1ccc([N+](=O)[O-])cc1)C(C(C)=O)C(=O)OCC (configuration not stated)
inactive: dose: 3.12 mg/kg/injection, schedule: Q01DX009 (ip), vehicle: saline 86 % of control | dose: 6.25 mg/kg/injection, schedule: Q01DX009 (ip), vehicle: saline 88 % of control | dose: 12.5 mg/kg/injection, schedule: Q01DX009 (ip), vehicle: saline 89 % of control | dose: 25.0 mg/kg/injection, schedule: Q01DX009 (ip), vehicle: saline 86 % of control

O=C1OC(c2cccc([N+](=O)[O-])c2)=N/C1=C\c1ccccc1
inactive: [10] 94 % of control | dose: 200.0 mg/kg/injection, schedule: Q01DX009 (ip), vehicle: saline with Tween-80 102 % of control | dose: 400.0 mg/kg/injection, schedule: Q01DX009 (ip), vehicle: saline with Tween-80 94 % of control

Cc1ccc(O)c(CCCC(=O)O)c1
inactive: dose: 100.0 mg/kg/injection, schedule: Q01DX009 (ip), vehicle: alcohol 100 % of control | dose: 200.0 mg/kg/injection, schedule: Q01DX009 (ip), vehicle: alcohol 101 % of control | dose: 400.0 mg/kg/injection, schedule: Q01DX009 (ip), vehicle: alcohol 98 % of control

C=CC[N+]1=C(C)C(C)(C)c2ccccc21
inactive: [1] 95 % of control | [2] 96 % of control

CC(CO)(CI)[n+]1ccccc1 (configuration not stated)
inactive: dose: 25.0 mg/kg/injection, schedule: Q01DX009 (ip), vehicle: saline with Tween-80 100 % of control | dose: 50.0 mg/kg/injection, schedule: Q01DX009 (ip), vehicle: saline with Tween-80 94 % of control | [10] 103 % of control | [1] 106 % of control

O=S(=O)(c1ccc(OCC(O)COc2ccc(S(=O)(=O)c3ccc(OCC4CO4)cc3)cc2)cc1)c1ccc(OCC2CO2)cc1 (configuration not stated)
inactive: dose: 100.0 mg/kg/injection, schedule: Q01DX001 (ip), vehicle: saline 106 % of control | dose: 200.0 mg/kg/injection, schedule: Q01DX001 (ip), vehicle: saline 109 % of control | dose: 400.0 mg/kg/injection, schedule: Q01DX001 (ip), vehicle: saline 104 % of control

C=CCOCC(O)CN(C)CCCC (configuration not stated)
inactive: dose: 25.0 mg/kg/injection, schedule: Q04DX003 (ip), vehicle: saline 101 % of control | [8] 100 % of control | dose: 50.0 mg/kg/injection, schedule: Q04DX003 (ip), vehicle: saline 97 % of control | [9] 94 % of control | [6] 103 % of control and 91 % of control

ClCc1ccc2ccc3cccc4ccc1c2c34
inactive: dose: 5.0 mg/kg/injection, schedule: Q01DX009 (ip), vehicle: carboxymethylcellulose (CMC) 109 % of control | dose: 10.0 mg/kg/injection, schedule: Q01DX009 (ip), vehicle: carboxymethylcellulose (CMC) 110 % of control | dose: 12.5 mg/kg/injection, schedule: Q01DX009 (ip), vehicle: carboxymethylcellulose (CMC) 109 % of control | dose: 20.0 mg/kg/injection, schedule: Q01DX009 (ip), vehicle: carboxymethylcellulose (CMC) 121 % of control | dose: 25.0 mg/kg/injection, schedule: Q01DX009 (ip), vehicle: carboxymethylcellulose (CMC) 97 % of control

C(=N\c1oc(-c2ccccc2)nc1SCc1ccccc1)/c1ccccc1
inactive: [11] 96 % of control | [12] 96 % of control | [13] 120 % of control

CC(C)(C)NC(=O)NCc1ccccc1Cl
inactive: [11] 96 % of control | [12] 96 % of control | [13] 100 % of control
